Measurements taken from patent US20220047698A1, “SYNTHETIC INNATE IMMUNE RECEPTOR LIGANDS AND USES THEREOF” (ALBERTA RESEARCH CHEMICALS INC., priority 2018, published 2022).

System: BALB/c mice
Assay: Mouse immunization with OVA plus adjuvant combinations, serum IgG1 / IgG2a
Type: in vivo
Settings: mice vaccinated with OVA and adjuvant combinations, subcutaneous, booster Day 21; for serum IgG1: FIG. 2; for serum IgG2a: FIG. 3
Method: Ability of compounds as vaccine adjuvants are assessed through their ability to induce robust immune responses in mice when administered along with a standard experimental antigen, OVA peptide, and compared the balance of Th1 and Th2 responses from their IgG1a and IgG2a responses as well as the cytokine production in mice. It is very common to see the antibody responses to many adjuvants but it is important to see the cellular responses as well which are used as therapeutic vaccines such as cancer vaccines.
Mouse Immunization: Groups of BALB/c mice were immunized with vaccine formulations wherein OVA (50 μg/dose) is combined with PZ (10 μg/dose), PIC (10 μg/dose), and adjuvant alone or in combination (20 μg/dose). In Trial 1, mice (n=8 per group) were immunized subcutaneously with 100 μl total volume with OVA alone, OVA+PZ/PI/52, OVA+52, or saline. In Trial 2, mice (n=8 per group) were immunized subcutaneously with 200 μl total volume with OVA alone, OVA+52, OVA+PZ+PIC, OVA+52+PZ+PI, OVA+(63+97) nanoparticles, or OVA+(52+63+97)nanoparticles, where the number refers to the compound number. The volume was doubled in Trial 2 because the (63+97)Np's were viscous and required more buffer to be easily injected. Mice received a booster immunization on Day 21. Blood was obtained on day 21, day 35 for both trials and 48 for trial 1 only. Mice were euthanized with isofluorane on Day 35 in Trial 2 and Day 48 in Trial 1. Spleens were isolated on day of euthanization.

SMILES | serum IgG1 | serum IgG2a
CC(=O)N[C@@H]1[C@@H](O[C@H](C)C(=O)N[C@@H](C)C(=O)N[C@@H](CCC(=O)O)C(N)=O)[C@H](O)[C@@H](COC(=O)CCCCCCCCCCCC(C)C)O[C@H]1O [Compound 63, (S)-4-((S)-2-((R)-2-(((2R,3R,4R,5S,6R)-3-acetamido-2,5-dihydroxy-6-(((13-methyltetradecanoyl)oxy)methyl)tetrahydro-2H-pyran-4-yl)oxy)propanamido)propanamido)-5-amino-5-oxopentanoic acid] | significant increased production | significant increased production
CSCC[C@H](NC=O)C(=O)N[C@@H](CC(C)C)C(=O)N[C@@H](Cc1ccccc1)C(=O)NCCNC(=O)[C@H](CCCCN)NC(=O)[C@H](CCCCN)NC(=O)[C@H](CCCCN)NC(=O)[C@H](CO)NC(=O)[C@H](CSCC(COC(=O)CCCCCCCCCCCC(C)C)OC(=O)CCCCCCCCCCCC(C)C)NC(=O)CCCCCCCCCCCC(C)C.Cl.Cl.Cl (stereo partly drawn) [Compound 52, TrilipoCys-Ser-Lys-Lys-Lys-NH—CH2-CH2-NH-F-L-Mf] | significant increased production | significant increased production
